Experimental data from patent US7521451B2, “Isoindoline derivative” (Maruishi Pharmaceutical Co., Ltd., priority 2002, dated 2009).
Structures can show the parent of a compound that is named as a salt.

Experiments:
mice [1] = conditions: comparison anesthetics, disclosed in Japanese Patent Application Laid Open No. 50-154410, cited from earlier work; for T. I.(mouse): LD50/HD50
mice [2] = conditions: comparison anesthetics, disclosed in Japanese Patent Application Laid Open No. 50-154410; cited from earlier work

Compound	melting point	T. I.(mouse) (mice [1])	LD50 (mice [1])	HD50 (mice [2])
CCOC(=O)CC1c2cc(C)c(C)cc2C(=S)N1c1cccnc1 (centres unmarked)	158 to 158.5 °C			
Cc1cc2c(cc1C)C(C(=O)O)N(c1cccc(F)c1)C2=O (centres unmarked) (as salt: hydrochloride)	152 to 157.5 °C			
Cc1cc2c(cc1C)C(OCC(=O)O)N(c1cccc(F)c1)C2=O (centres unmarked) (as salt: hydrochloride)	145 to 146 °C			
Cc1cc2c(cc1C)C(OCC(=O)N1CCN(C)CC1)N(c1cccc(F)c1)C2=O (centres unmarked) (as salt: hydrochloride)	138 to 144.5 °C			
CCCOC(=O)CC1c2cc(C)c(C)cc2C(=O)N1c1cccnc1 (centres unmarked) (as salt: hydrochloride)	201.5 to 208.5 °C			
CC(C)c1cccc(C(C)C)c1O [Propofol, 2,6-diisopropylphenol]		4.14	56 mg/kg	13.5 mg/kg
CCCC(C)C1(CC)C(=O)NC(=S)NC1=O (centres unmarked) [Thiopental Sodium, thiopental sodium]		4.26	100 mg/kg	23.5 mg/kg
